Results published in PubChem BioAssay (NCI).
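Dose response: 5 concentrations. Exposure: 48 h. Format: 96-well plates. Endpoint: linear interpolation; highest concentration if not reached. Here, GI50 denotes the concentration required for 50% inhibition of growth. TGI denotes the concentration required for complete inhibition of growth.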

Experiments:
Experiment in all cases: NCI-60 cell line screen, 48 h
[1] = system: 786-0 renal
[2] = system: A498 renal
[3] = system: A549 NSCLC
[4] = system: ACHN renal
[5] = system: BT-549 breast
[6] = system: CAKI-1 renal
[7] = system: CCRF-CEM leukemia
[8] = system: COLO 205 colon
[9] = system: DU-145 prostate
[10] = system: EKVX NSCLC
[11] = system: HCC-2998 colon
[12] = system: HCT-116 colon
[13] = system: HCT-15 colon
[14] = system: HL-60(TB) leukemia
[15] = system: HOP-62 NSCLC
[16] = system: HOP-92 NSCLC
[17] = system: HS 578T breast
[18] = system: HT29 colon
[19] = system: IGROV1 ovarian
[20] = system: K-562 leukemia
[21] = system: KM12 colon
[22] = system: LOX IMVI melanoma
[23] = system: M14 melanoma
[24] = system: MALME-3M melanoma
[25] = system: MCF7 breast
[26] = system: MDA-MB-231 breast
[27] = system: MDA-MB-435
[28] = system: NCI-H226 lung
[29] = system: NCI-H23 lung
[30] = system: NCI-H460 lung
[31] = system: NCI-H522 lung
[32] = system: NCI/ADR-RES ovarian
[33] = system: OVCAR-3 ovarian
[34] = system: OVCAR-4 ovarian
[35] = system: OVCAR-5 ovarian
[36] = system: OVCAR-8 ovarian
[37] = system: PC-3 prostate
[38] = system: RPMI-8226 leukemia
[39] = system: RXF 393 renal
[40] = system: SF-268 CNS
[41] = system: SF-295 CNS
[42] = system: SF-539 CNS
[43] = system: SK-MEL-2 melanoma
[44] = system: SK-MEL-28 melanoma
[45] = system: SK-MEL-5 melanoma
[46] = system: SK-OV-3 ovarian
[47] = system: SN12C renal
[48] = system: SNB-19 CNS
[49] = system: SNB-75 CNS
[50] = system: SR leukemia
[51] = system: SW-620 colon
[52] = system: T-47D breast
[53] = system: TK-10 renal
[54] = system: U251 CNS
[55] = system: UACC-257 melanoma
[56] = system: UACC-62 melanoma
[57] = system: UO-31 renal
[58] = system: MOLT-4 leukemia

Question: What does the source list for CCNCCNc1cc(-c2ccc(C#N)cc2)c(C#N)c2nc3ccccc3n12?
Answer: GI50 [1]: 2200 nM; TGI [1]: 7.46 µM; GI50 [2]: 3.73 µM; TGI [2]: 11.9 µM; GI50 [3]: 3.06 µM; TGI [3]: 6.39 µM; GI50 [4]: 2340 nM; TGI [4]: 5.73 µM; GI50 [5]: 1.9 µM; TGI [5]: 4.91 µM; GI50 [6]: 3500 nM; TGI [6]: 13.5 µM; GI50 [7]: 2490 nM; TGI [7]: 9.9 µM; GI50 [8]: 1880 nM; TGI [8]: 4.16 µM; GI50 [9]: 4.13 µM; TGI [9]: 15.3 µM; GI50 [10]: 4.75 µM; TGI [10]: 19.3 µM; GI50 [11]: 6.04 µM; TGI [11]: 20.8 µM; GI50 [12]: 1500 nM; TGI [12]: 2940 nM; GI50 [13]: 2810 nM; TGI [13]: 11 µM; GI50 [14]: 1870 nM; TGI [14]: 4.35 µM; GI50 [15]: 3.13 µM; TGI [15]: 14.9 µM; GI50 [16]: 2210 nM; TGI [16]: 4.5 µM; GI50 [17]: 3490 nM; TGI [17]: 13.9 µM; GI50 [18]: 3.1 µM; TGI [18]: 9.82 µM; GI50 [19]: 4.53 µM; TGI [19]: 18 µM; GI50 [20]: 3.13 µM; TGI [20]: 18.2 µM; GI50 [21]: 3.36 µM; TGI [21]: 12.2 µM; GI50 [22]: 1720 nM; TGI [22]: 3.29 µM; GI50 [23]: 1880 nM; TGI [23]: 3.79 µM; GI50 [24]: 1800 nM; TGI [24]: 3.99 µM; GI50 [25]: 3.59 µM; TGI [25]: 16.2 µM; GI50 [26]: 2350 nM; TGI [26]: 5.61 µM; GI50 [27]: 2290 nM; TGI [27]: 6.28 µM; GI50 [28]: 2.59 µM; TGI [28]: 11.9 µM; GI50 [29]: 5.3 µM; TGI [29]: 21.3 µM; GI50 [30]: 2470 nM; TGI [30]: 5.66 µM; GI50 [31]: 2440 nM; TGI [31]: 7.06 µM; GI50 [32]: 5.74 µM; TGI [32]: 36 µM; GI50 [33]: 1660 nM; TGI [33]: 3.09 µM; GI50 [34]: 2540 nM; TGI [34]: 8.74 µM; GI50 [35]: 4.66 µM; TGI [35]: 18.4 µM; GI50 [36]: 5.15 µM; TGI [36]: 16.9 µM; GI50 [37]: 7.41 µM; TGI [37]: 20.7 µM; GI50 [38]: 4.78 µM; TGI [38]: 19.5 µM; GI50 [39]: 1740 nM; TGI [39]: 4.1 µM; GI50 [40]: 3.42 µM; TGI [40]: 14.1 µM; GI50 [41]: 1790 nM; TGI [41]: 3.6 µM; GI50 [42]: 1770 nM; TGI [42]: 3.49 µM; GI50 [43]: 3.2 µM; TGI [43]: 10.4 µM; GI50 [44]: 1860 nM; TGI [44]: 3.72 µM; GI50 [45]: 2280 nM; TGI [45]: 5.67 µM; GI50 [46]: 3.8 µM; TGI [46]: 14.8 µM; GI50 [47]: 3.13 µM; TGI [47]: 11.8 µM; GI50 [48]: 4.69 µM; TGI [48]: 17.4 µM; GI50 [49]: 1660 nM; TGI [49]: 4.24 µM; GI50 [50]: 2590 nM; TGI [50]: 6.74 µM; GI50 [51]: 2680 nM; TGI [51]: 11.1 µM; GI50 [52]: 2340 nM; TGI [52]: 6.39 µM; GI50 [53]: 2030 nM; TGI [53]: 5.74 µM; GI50 [54]: 2340 nM; TGI [54]: 5.2 µM; GI50 [55]: 3.72 µM; TGI [55]: 7.14 µM; GI50 [56]: 2020 nM; TGI [56]: 4.18 µM; GI50 [57]: 1620 nM; TGI [57]: 3.1 µM

Question: What does the source list for N=C(N)c1ccc(-c2ccc(-c3cc(Cl)cc(Cl)c3)s2)s1?
Answer: GI50 [5]: 4.37 µM; TGI [5]: > 100 µM; GI50 [6]: 1720 nM; TGI [6]: 3.35 µM; GI50 [17]: 2150 nM; TGI [17]: 5 µM; GI50 [28]: 30.8 µM; TGI [28]: 65.4 µM; GI50 [46]: 3.62 µM; TGI [46]: 17.1 µM

Question: For O=S1(=O)c2cnccc2NC(=NCc2ccccc2)N1c1ccccc1, which TGI [1] is on record?
Answer: > 100 µM

Question: And the TGI [2]?
Answer: > 100 µM

Question: And the TGI [3]?
Answer: > 100 µM

Question: And the TGI [4]?
Answer: > 100 µM

Question: What about the TGI [5] of the same molecule?
Answer: > 100 µM

Question: What about the TGI [6] of the same molecule?
Answer: > 100 µM

Question: What about the TGI [7] of the same molecule?
Answer: > 100 µM

Question: What about the TGI [8] of the same molecule?
Answer: > 100 µM

Question: And the TGI [9]?
Answer: > 100 µM

Question: What about the TGI [10] of the same molecule?
Answer: > 100 µM

Question: What about the TGI [11] of the same molecule?
Answer: > 100 µM

Question: What about the TGI [12] of the same molecule?
Answer: > 100000 nM

Question: What about the TGI [13] of the same molecule?
Answer: > 100 µM

Question: What about the TGI [14] of the same molecule?
Answer: > 100 µM

Question: And the TGI [15]?
Answer: > 100 µM

Question: What about the TGI [16] of the same molecule?
Answer: > 100 µM

Question: What about the TGI [17] of the same molecule?
Answer: > 100 µM

Question: What about the TGI [18] of the same molecule?
Answer: > 100 µM

Question: What about the TGI [19] of the same molecule?
Answer: > 100 µM

Question: What about the TGI [20] of the same molecule?
Answer: > 100 µM

Question: What about the TGI [21] of the same molecule?
Answer: > 100 µM

Question: What about the TGI [22] of the same molecule?
Answer: > 100 µM

Question: And the TGI [23]?
Answer: > 100 µM

Question: And the TGI [24]?
Answer: > 100 µM

Question: And the TGI [25]?
Answer: > 100 µM

Question: What about the TGI [27] of the same molecule?
Answer: > 100 µM

Question: What about the TGI [58] of the same molecule?
Answer: > 100 µM

Question: And the TGI [28]?
Answer: > 100 µM

Question: What about the TGI [29] of the same molecule?
Answer: > 100 µM

Question: What about the TGI [30] of the same molecule?
Answer: > 100 µM

Question: What about the TGI [31] of the same molecule?
Answer: > 100 µM

Question: And the TGI [32]?
Answer: > 100 µM

Question: And the TGI [33]?
Answer: > 100 µM

Question: What about the TGI [34] of the same molecule?
Answer: > 100 µM

Question: What about the TGI [35] of the same molecule?
Answer: > 100 µM

Question: And the TGI [36]?
Answer: > 100 µM

Question: What about the TGI [37] of the same molecule?
Answer: > 100 µM

Question: And the TGI [38]?
Answer: 58.8 µM

Question: What about the TGI [39] of the same molecule?
Answer: > 100 µM

Question: What about the TGI [40] of the same molecule?
Answer: > 100 µM

Question: What about the TGI [41] of the same molecule?
Answer: > 100 µM

Question: What about the TGI [42] of the same molecule?
Answer: > 100 µM

Question: And the TGI [43]?
Answer: > 100 µM

Question: What about the TGI [44] of the same molecule?
Answer: > 100 µM

Question: And the TGI [45]?
Answer: > 100 µM

Question: What about the TGI [46] of the same molecule?
Answer: > 100 µM

Question: And the TGI [47]?
Answer: > 100 µM

Question: What about the TGI [48] of the same molecule?
Answer: > 100 µM

Question: And the TGI [49]?
Answer: > 100 µM

Question: And the TGI [50]?
Answer: > 100 µM

Question: And the TGI [51]?
Answer: > 100 µM

Question: What about the TGI [52] of the same molecule?
Answer: > 100 µM

Question: And the TGI [53]?
Answer: > 100 µM

Question: What about the TGI [54] of the same molecule?
Answer: > 100 µM

Question: What about the TGI [55] of the same molecule?
Answer: > 100 µM

Question: What about the TGI [56] of the same molecule?
Answer: > 100 µM

Question: And the TGI [57]?
Answer: > 100 µM
